This is an account of results in ChEMBL document CHEMBL1139760, “Studies on a series of potent, orally bioavailable, 5-HT(1) receptor ligands” (Bioorg Med Chem Lett, 2007).

As a reminder, the Kp is tissue or fluid exposure divided by exposure in the circulation. As usually defined, the bioavailability is dose-corrected exposure relative to a reference, in per cent. Read a low bioavailability as little systemic uptake. As usually defined, the Ki is a dissociation constant, usually derived from enzyme kinetics or from competition with a known ligand. As a reminder, the clearance is the volume of plasma or blood freed of the substance per unit of time. Higher therefore signals a high capacity for elimination. As usually defined, the half-life is the time needed for the level to fall by half in the phase considered. A higher half-life goes with slow loss.

Data set [1] in a line: Volume of distribution at steady state in rat at 1 mg/kg, iv. Particulars: in vivo, read-out: Vdss. More on the design: dose 1 mg/kg, route intravenous. The format is ADME, organism-based.
Data set [2] can be described thus: Ratio of drug level in brain to blood in rat at 3 mg/kg, po. The class given is ADME, organism-based. More on the design: dose 3 mg/kg, route oral.
The nature of data set [3]: Oral bioavailability in rat at 3 mg/kg. The class given is ADME, organism-based. As to conditions: in vivo.
In data set [4] the target is T1, Muscarinic acetylcholine receptor M1 (Homo sapiens) (UniProt P11229).
T1 sequence (whole entry): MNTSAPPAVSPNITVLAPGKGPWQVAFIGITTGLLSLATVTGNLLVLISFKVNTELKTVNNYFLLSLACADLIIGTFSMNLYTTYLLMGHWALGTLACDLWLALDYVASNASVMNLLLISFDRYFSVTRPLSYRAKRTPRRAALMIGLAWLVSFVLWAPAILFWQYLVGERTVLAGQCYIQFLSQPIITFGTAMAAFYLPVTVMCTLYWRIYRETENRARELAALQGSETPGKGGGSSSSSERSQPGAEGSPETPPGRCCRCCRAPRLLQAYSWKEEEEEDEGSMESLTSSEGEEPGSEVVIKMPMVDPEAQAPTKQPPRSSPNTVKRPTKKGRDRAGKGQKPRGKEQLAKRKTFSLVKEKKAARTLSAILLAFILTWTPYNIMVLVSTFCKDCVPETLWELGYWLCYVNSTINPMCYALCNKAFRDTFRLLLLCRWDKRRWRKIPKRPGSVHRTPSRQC
As to the kind of experiment: Inhibition of muscarinic M1 receptor at 1 uM.

Data set [5] deals with T2, 5-hydroxytryptamine receptor 1A (Homo sapiens) (UniProt P08908).
T2 sequence (whole entry): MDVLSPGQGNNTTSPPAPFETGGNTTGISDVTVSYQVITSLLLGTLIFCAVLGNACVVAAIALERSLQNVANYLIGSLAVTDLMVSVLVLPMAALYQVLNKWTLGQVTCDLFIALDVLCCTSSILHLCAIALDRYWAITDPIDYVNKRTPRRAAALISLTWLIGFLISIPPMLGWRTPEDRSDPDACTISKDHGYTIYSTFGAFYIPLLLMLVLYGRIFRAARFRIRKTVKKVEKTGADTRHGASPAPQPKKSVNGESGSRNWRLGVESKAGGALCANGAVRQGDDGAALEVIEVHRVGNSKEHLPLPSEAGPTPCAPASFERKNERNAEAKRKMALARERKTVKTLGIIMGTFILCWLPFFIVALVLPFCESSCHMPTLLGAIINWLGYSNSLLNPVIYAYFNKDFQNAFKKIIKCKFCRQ
Kind of data set: Intrinsic activity at human recombinant 5HT1A receptor expressed in CHO cells by [35S]GTP-gamma-S binding assay relative to 5-hydroxytryptamine. The class given is functional, cell-based. Background: GTPγS is a poorly hydrolysed GTP analogue; its binding reports G protein activation.

Data set [6] addresses Histamine H2 receptor (Homo sapiens) (UniProt P25021). Kind of data set: Inhibition of histamine H2 receptor at 1 uM.
For data set [7], the target named is T3, 5-hydroxytryptamine receptor 1B (Homo sapiens, UniProt P28222). As to the kind of experiment: Intrinsic activity at human recombinant 5HT1B receptor expressed in CHO cells by [35S]GTP-gamma-S binding assay relative to 5-hydroxytryptamine. The format is functional, cell-based.
T3 sequence (P28222 whole entry): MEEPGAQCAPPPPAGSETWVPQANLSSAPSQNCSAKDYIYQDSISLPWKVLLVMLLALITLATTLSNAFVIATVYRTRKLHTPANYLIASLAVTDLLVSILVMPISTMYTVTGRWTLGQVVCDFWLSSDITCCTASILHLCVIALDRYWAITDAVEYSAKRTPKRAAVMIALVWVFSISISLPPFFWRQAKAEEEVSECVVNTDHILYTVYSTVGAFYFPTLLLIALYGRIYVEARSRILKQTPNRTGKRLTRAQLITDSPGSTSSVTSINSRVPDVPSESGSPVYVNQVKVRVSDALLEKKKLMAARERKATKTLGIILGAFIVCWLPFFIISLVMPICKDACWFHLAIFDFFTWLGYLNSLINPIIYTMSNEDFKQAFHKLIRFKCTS
The target of data set [8] is Sodium-dependent serotonin transporter (Rattus norvegicus, UniProt P31652).
Sequence of Sodium-dependent serotonin transporter (P31652 whole entry): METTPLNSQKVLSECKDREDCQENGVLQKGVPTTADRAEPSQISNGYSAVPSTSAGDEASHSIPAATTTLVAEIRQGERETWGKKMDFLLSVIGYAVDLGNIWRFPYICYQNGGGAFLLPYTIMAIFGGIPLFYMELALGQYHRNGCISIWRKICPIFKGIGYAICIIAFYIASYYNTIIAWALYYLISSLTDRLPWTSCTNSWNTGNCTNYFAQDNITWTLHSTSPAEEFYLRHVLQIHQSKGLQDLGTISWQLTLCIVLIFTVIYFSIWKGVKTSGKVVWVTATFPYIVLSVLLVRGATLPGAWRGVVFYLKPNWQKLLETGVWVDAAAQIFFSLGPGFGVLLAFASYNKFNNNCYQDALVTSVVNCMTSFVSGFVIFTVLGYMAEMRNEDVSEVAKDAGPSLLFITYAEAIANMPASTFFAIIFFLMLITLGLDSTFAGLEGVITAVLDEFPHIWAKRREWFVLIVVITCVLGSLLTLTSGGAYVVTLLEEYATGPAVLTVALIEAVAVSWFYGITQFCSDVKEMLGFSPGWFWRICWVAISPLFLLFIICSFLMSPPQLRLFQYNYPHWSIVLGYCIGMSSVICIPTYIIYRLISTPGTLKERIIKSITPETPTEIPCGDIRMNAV
Description: Inhibition of [3H]5-HT uptake at SERT in rat cortical synaptosomes
In data set [9] the test system is Liver microsomes. Kind of data set: Metabolic stability assessed as intrinsic clearance in human liver microsomes. The format is ADME, Microsome. Background: Liver microsomes are vesicles of endoplasmic reticulum, rich in cytochrome P450 enzymes.
In data set [10] the target is T4, Alpha-1A adrenergic receptor (Homo sapiens) (UniProt P35348).
T4 sequence (whole entry): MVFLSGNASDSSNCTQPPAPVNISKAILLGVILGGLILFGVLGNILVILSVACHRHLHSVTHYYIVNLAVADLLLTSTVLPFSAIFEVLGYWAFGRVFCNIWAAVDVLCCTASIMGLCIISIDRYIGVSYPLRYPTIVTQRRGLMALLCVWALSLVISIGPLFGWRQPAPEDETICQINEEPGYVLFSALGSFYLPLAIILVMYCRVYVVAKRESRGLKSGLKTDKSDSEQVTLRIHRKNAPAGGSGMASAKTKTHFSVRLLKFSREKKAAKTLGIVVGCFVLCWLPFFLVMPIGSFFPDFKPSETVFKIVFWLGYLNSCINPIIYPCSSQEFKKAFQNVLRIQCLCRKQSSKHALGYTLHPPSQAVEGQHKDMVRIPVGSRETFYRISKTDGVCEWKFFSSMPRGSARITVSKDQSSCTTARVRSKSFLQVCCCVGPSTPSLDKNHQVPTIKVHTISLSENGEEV
As to the kind of experiment: Inhibition of adrenergic alpha1 receptor at 1 uM.

Data set [11] deals with Liver microsomes. As to the kind of experiment: Metabolic stability assessed as intrinsic clearance in rat liver microsomes. The format is ADME, Microsome.
Data set [12] can be described thus: Clearance in rat blood at 1 mg/kg, iv. The format is ADME, organism-based. Further details: dose 1 mg/kg, route intravenous.
The target of data set [13] is T3, 5-hydroxytryptamine receptor 1B. As to the kind of experiment: Displacement of [3H]5-HT from human recombinant 5HT1B receptor expressed in CHO cells. The class given is cell-based.
The target in data set [14] is 5-hydroxytryptamine receptor 1D (Homo sapiens, UniProt P28221). Kind of data set: Displacement of [3H]5-HT from human recombinant 5HT1D receptor expressed in CHO cells. The class given is cell-based. A general note: Loss of bound radioactivity is the signal in a displacement assay; it reports binding, not function.
Sequence of 5-hydroxytryptamine receptor 1D (P28221 whole entry): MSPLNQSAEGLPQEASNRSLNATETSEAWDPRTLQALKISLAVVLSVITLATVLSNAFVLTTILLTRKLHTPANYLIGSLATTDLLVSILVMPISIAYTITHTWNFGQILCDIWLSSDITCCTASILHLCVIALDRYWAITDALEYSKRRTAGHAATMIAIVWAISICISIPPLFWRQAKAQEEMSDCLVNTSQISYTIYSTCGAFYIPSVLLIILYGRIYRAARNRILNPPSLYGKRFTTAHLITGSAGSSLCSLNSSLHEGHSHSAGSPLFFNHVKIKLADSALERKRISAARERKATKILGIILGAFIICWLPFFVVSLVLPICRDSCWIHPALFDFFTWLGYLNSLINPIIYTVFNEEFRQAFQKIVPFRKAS
Data set [15] deals with T5, 5-hydroxytryptamine receptor 1A (Homo sapiens, UniProt P08908).
T5 sequence (P08908 whole entry): T2 sequence (whole entry)
As to the kind of experiment: Displacement of [3H]WAY 100635 from human recombinant 5HT1A receptor expressed in CHO cells. The format is cell-based.

For data set [16], the target named is T5, 5-hydroxytryptamine receptor 1A. Kind of data set: Displacement of [3H]-WAY100635 from human recombinant 5HT1A receptor expressed in CHO cells.
A short description of data set [17]: Half life in rat at 1 mg/kg, iv. Particulars: in vivo. The format is ADME, organism-based. Further details: dose 1 mg/kg, route intravenous.

Activity calls are given as the source filed them.

Sequence of Histamine H2 receptor (Homo sapiens) (P25021 whole entry): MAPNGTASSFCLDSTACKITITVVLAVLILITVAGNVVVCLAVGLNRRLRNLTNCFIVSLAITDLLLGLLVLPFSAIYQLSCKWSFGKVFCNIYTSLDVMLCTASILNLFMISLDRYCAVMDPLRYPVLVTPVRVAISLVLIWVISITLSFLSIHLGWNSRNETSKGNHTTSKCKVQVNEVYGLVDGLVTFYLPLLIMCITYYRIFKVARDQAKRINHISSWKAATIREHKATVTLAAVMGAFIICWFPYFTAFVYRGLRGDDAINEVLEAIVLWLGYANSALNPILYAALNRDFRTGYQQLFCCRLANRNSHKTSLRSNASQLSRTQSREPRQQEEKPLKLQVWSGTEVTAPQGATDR

Turning to `Cc1ccc2c(OCCN3CCC(Cc4ccc5c(c4)N(C)C(=O)CO5)CC3)cccc2n1`, the Vd in [1] worked out at 4.2 L/kg. For the same compound, in data set [2], the Kp was found to be 1.3. In [3], the bioavailability came out at 35%. Moreover, the outcome in [4], in data set [6] and in data set [10] was Active. The Intrinsic activity came to 0 in data set [5] and 0.5 in [7]. Besides, the Ki in data set [8] was 39.8 nM; in data set [13] it was 6.31 nM; in [14], 2.51 nM; in [15] it was 6.31 nM; in [16] it was 0.398 nM. Besides, the CL with Liver microsomes [9] came out at 0.9 mL/min/g; with Liver microsomes [11], 4.9 mL/min/g. The compound also yielded a clearance in data set [12] of 57 mL/min/kg. In addition, the half-life in [17] was 1.3 h.
